In PubChem BioAssay (NCI):
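These data come from cells grown in 96-well plates and exposed to compound for 48 hours at five concentrations. TGI is the concentration that stops growth completely.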 Where a SMILES comes first, the peptide text is derived from it.

How the values were obtained:
Test in all cases: NCI anticancer screen, dose series, 48 h
[1] = test system: COLO 205 colon
[2] = test system: EKVX NSCLC
[3] = test system: HCC-2998 colon
[4] = test system: HS 578T breast
[5] = test system: HT29 colon
[6] = test system: IGROV1 ovarian
[7] = test system: K-562 leukemia
[8] = test system: KM12 colon
[9] = test system: M14 melanoma
[10] = test system: MOLT-4 leukemia
[11] = test system: NCI/ADR-RES ovarian
[12] = test system: PC-3 prostate
[13] = test system: RXF 393 renal
[14] = test system: SK-MEL-2 melanoma
[15] = test system: SK-MEL-28 melanoma
[16] = test system: SK-MEL-5 melanoma
[17] = test system: SNB-19 CNS
[18] = test system: HL-60(TB) leukemia
[19] = test system: SR leukemia

| Compound | TGI [1] [µM] | TGI [2] [µM] | TGI [3] [µM] | TGI [4] [µM] | TGI [5] [µM] | TGI [6] [µM] | TGI [7] [µM] | TGI [8] [µM] | TGI [9] [µM] | TGI [10] [µM] | TGI [11] [µM] | TGI [12] [µM] | TGI [13] [µM] | TGI [14] [µM] | TGI [15] [µM] | TGI [16] [µM] | TGI [17] [µM] | TGI [18] [µM] | TGI [19] [µM] |
| --- | --- | --- | --- | --- | --- | --- | --- | --- | --- | --- | --- | --- | --- | --- | --- | --- | --- | --- | --- |
| Cn1c(=O)cc(NCCc2ccccc2)[nH]c1=O | > 100 | > 100 | > 100 | 50.7 | 78.1 | > 100 | > 100 | > 100 | > 100 | > 100 | 98 | > 100 | > 100 | > 100 | > 100 | > 100 | > 100 | – | – |
| Cn1c2ccccc2c2nc3ccccc3c(Cl)c21 | > 100 | – | – | > 100 | > 100 | > 100 | > 100 | > 100 | > 100 | > 100 | > 100 | > 100 | > 100 | > 100 | > 100 | – | > 100 | > 100 | > 100 |
| CN(NC(=O)/C(=C\c1ccco1)NC(=O)c1ccccc1)c1cn[nH]c(=O)c1Cl | > 100 | > 100 | – | > 100 | > 100 | > 100 | > 100 | > 100 | > 100 | 93.3 | > 100 | > 100 | > 100 | > 100 | > 100 | 94.9 | > 100 | – | > 100 |
| COC(=O)c1ccccc1C1CN=NC12Cc1cc(C)c(C)cc1C2=O (stereo not drawn) | > 100 | > 100 | > 100 | > 100 | > 100 | > 100 | > 100 | > 100 | > 100 | 89.8 | > 100 | > 100 | > 100 | > 100 | > 100 | 38.1 | > 100 | 46.9 | – |
| CC(=O)N/N=C1/CC[C@@]2(C)C(=CC[C@H]3C4CCC(C(C)CCCC(C)C)[C@@]4(C)CCC32)C1(C)C (stereo partly drawn) | > 100 | > 100 | – | > 100 | > 100 | > 100 | > 100 | > 100 | > 100 | 34.1 | > 100 | > 100 | – | > 100 | > 100 | > 100 | > 100 | > 100 | > 100 |
| Cc1cnoc1NS(=O)(=O)c1ccc(Nc2nnc(/C=C/c3c(O)ccc4ccccc34)c(=O)n2N)cc1 | – | 71.9 | – | > 100 | > 100 | > 100 | 82.9 | – | 75.7 | > 100 | 66.9 | – | 80.2 | – | – | – | > 100 | 22.4 | 55.6 |
| CCOP(=O)(OCC)[C@]12C[C@@H](C)C=C[C@H]1COC2=O | > 100 | > 100 | > 100 | > 100 | – | – | > 100 | > 100 | > 100 | > 100 | – | > 100 | > 100 | > 100 | > 100 | > 100 | > 100 | – | > 100 |
| CC1(C)CCCOc2cccc(c2)OCCCC(C)(C)C1=O | > 100 | > 100 | – | > 100 | 43.2 | > 100 | > 100 | > 100 | > 100 | 37.1 | > 100 | > 100 | 48.5 | 54.9 | > 100 | 35.8 | > 100 | > 100 | > 100 |
| CCOC(=O)C1=COC(C)(c2ccccc2)CC1=O (stereo not drawn) | > 100 | > 100 | > 100 | > 100 | > 100 | – | > 100 | > 100 | > 100 | 98 | > 100 | > 100 | > 100 | > 100 | > 100 | > 100 | > 100 | – | – |
| CC(=O)c1sc(Nc2ccc(Cl)c(Cl)c2)nc1C | > 100 | > 100 | > 100 | – | > 100 | > 100 | – | > 100 | – | 83.8 | > 100 | – | > 100 | – | > 100 | > 100 | > 100 | – | > 100 |
| CC1(C)CCC[C@]2(C)[C@@H]1CC[C@@]13O[C@@H]1C1=C(CO)C(=O)OC1=C[C@@H]23 | 30.6 | 29.2 | 46.7 | – | 29.6 | 29.4 | > 100 | 24.8 | 33.9 | > 100 | 37.7 | 57.4 | 36.4 | 53.8 | 31.7 | 29.5 | 28.7 | – | – |
| CN(/N=C\c1ccc2ccccc2c1)C1=NCCN1 | 31.9 | 63.3 | 29.7 | 47.5 | 31.3 | 41.6 | 45.2 | 32.8 | – | 40.9 | 82.1 | – | 23.9 | 30.9 | 28.4 | 28.6 | – | 33 | 56.6 |
| O=C(Cn1c2ccc(Br)cc2c2nc3ccccc3nc21)N/N=C/c1ccccc1 | > 100 | > 100 | – | – | > 100 | > 100 | > 100 | > 100 | > 100 | – | > 100 | > 100 | > 100 | > 100 | > 100 | > 100 | > 100 | – | > 100 |
| CC(C)(CC#N)c1cc(CC(C)(C)c2cc(CC(C)(C)c3cc(C(C)(C)C4(C)OCCO4)no3)no2)no1 | > 100 | > 100 | > 100 | 88.7 | > 100 | > 100 | > 100 | > 100 | > 100 | > 100 | > 100 | > 100 | 41.3 | > 100 | > 100 | > 100 | 77.7 | – | – |
| CCOC(=O)/C(C[C@H]1OC(C)(C)O[C@@H]1[C@H]1COC(C)(C)O1)=N/O | > 100 | > 100 | > 100 | > 100 | > 100 | > 100 | > 100 | > 100 | > 100 | > 100 | > 100 | > 100 | > 100 | > 100 | > 100 | > 100 | > 100 | > 100 | – |
| C[C@H](CCC(=O)O)[C@H]1CC[C@H]2[C@@H]3[C@H](O)C[C@@H]4C[C@H](O)CC[C@]4(C)[C@H]3CC[C@]12C | 45.7 | > 100 | 79.9 | – | 87.4 | > 100 | > 100 | > 100 | 85.2 | 62 | > 100 | > 100 | > 100 | 53.5 | > 100 | – | > 100 | > 100 | 47.4 |
| S=C1N=C(Cl)/C(=C\c2ccco2)N1 | > 100 | > 100 | – | > 100 | > 100 | > 100 | > 100 | > 100 | > 100 | – | > 100 | > 100 | > 100 | > 100 | > 100 | > 100 | > 100 | > 100 | > 100 |
| COc1ccc([C@]23CCN(S(=O)(=O)c4ccc(C)cc4)[C@H]2[C@H](CO)C2(CC3)OCC(C)(C)CO2)cc1OC | > 100 | > 100 | > 100 | – | > 100 | > 100 | > 100 | > 100 | > 100 | > 100 | > 100 | > 100 | > 100 | > 100 | > 100 | > 100 | > 100 | > 100 | > 100 |
| CC(/C=N\NC(=S)N(C)C)=N/NC(=S)N(C)C | 33.7 | > 100 | 75.9 | 52.8 | > 100 | 16.9 | > 100 | > 60.9 | > 54.1 | > 100 | – | > 100 | 2.58 | 70.7 | > 100 | 14.1 | > 100 | – | – |
| O=C1CC(c2ccc(Cl)cc2)C2(C(=O)NC(=O)NC2=O)C(c2ccc(Cl)cc2)C1 (stereo not drawn) | 65.1 | > 75 | > 75 | – | > 75 | 51.3 | > 75 | > 75 | > 75 | 41.3 | > 75 | > 75 | 52.2 | 38.4 | 37 | 47.1 | > 75 | > 75 | – |
| NC(=S)N/N=c1\cc(C(=O)Nc2ccc([N+](=O)[O-])cc2[N+](=O)[O-])oc2ccccc12 | > 100 | > 100 | > 100 | > 100 | > 100 | > 100 | – | > 100 | > 100 | > 100 | > 100 | > 100 | > 100 | > 100 | > 100 | > 100 | > 100 | > 100 | – |
| CCCC(=O)OCC1OC(n2cc(F)c(=O)[nH]c2=O)C(F)C1OC(=O)CCC (stereo not drawn) | > 100 | > 100 | – | > 100 | > 100 | > 100 | > 100 | > 100 | > 100 | > 100 | > 100 | > 100 | > 100 | > 100 | > 100 | > 100 | – | > 100 | > 100 |
| COc1ccc(NS(=O)c2ccccc2OC)cc1 (stereo not drawn) | 48.6 | > 100 | – | 84.5 | > 100 | > 100 | > 100 | 18.1 | > 100 | > 100 | > 100 | – | – | 46.6 | > 100 | 54.4 | > 100 | > 100 | > 100 |
| Nc1cc(N2CCOCC2)nc(=O)n1-c1ccc(Cl)cc1 | > 100 | > 100 | > 100 | – | > 100 | > 100 | > 100 | > 100 | > 100 | > 100 | > 100 | > 100 | – | > 100 | > 100 | > 100 | > 100 | > 100 | > 100 |
| C/C(=N\Nc1nc2ccccc2o1)c1cc(C)ncn1 | > 40.8 | 2.95 | > 48.6 | – | 14.8 | 1.51 | > 100 | 11.7 | > 34.7 | 3.09 | 0.0739 | > 100 | 32.1 | 32.7 | > 100 | 14.3 | > 100 | > 100 | > 100 |
| CCCC(=O)Oc1ccc2c(C)cc(=O)oc2c1OC(=O)CCC | > 100 | > 100 | – | > 100 | > 100 | > 100 | > 100 | > 100 | > 100 | > 100 | > 100 | > 100 | – | > 100 | > 100 | > 100 | > 100 | – | > 100 |
| CCC(C)C(NC(=O)C1CCCN1C(=O)C(CC(C)C)NC(=O)C(CC(C)C)NC(=O)C(N)CC(C)C)C(=O)NC(C(=O)NCC(=O)NC(CC(N)=O)C(=O)NC(CC(C)C)C(=O)NC(CC(C)C)C(=O)NC(CC(C)C)C(N)=O)C(C)C (stereo not drawn) (H-LLLPIVGNLLL-NH2; configuration not given here) | > 50 | > 50 | – | > 50 | > 50 | > 50 | – | > 50 | > 50 | > 50 | > 50 | > 50 | – | > 50 | > 50 | > 50 | > 50 | > 50 | > 50 |
